Measurements published in ChEMBL document CHEMBL1151218, “A new ursane triterpene from Monochaetum vulcanicum that inhibits DNA polymerase beta lyase” (J Nat Prod, 2004).

Target: DNA polymerase beta (Homo sapiens, UniProt P06746)
Assay: Inhibition of DNA polymerase beta lyase activity

| Compound | IC50 |
| --- | --- |
| C[C@H]1[C@H](C)CC[C@]2(C(=O)O)CC[C@]3(C)C(=CC[C@@H]4[C@@]5(C)CC[C@H](OC(=O)/C=C/c6ccc(O)cc6)C(C)(C)[C@@H]5CC[C@]43C)[C@H]12 | > 50 µM |
| CC(=O)O[C@H]1[C@H](O)C[C@]2(C)[C@H]3CC=C4[C@@H]5[C@@H](C)[C@H](C)CC[C@]5(C(=O)O)CC[C@@]4(C)[C@]3(C)CC[C@H]2C1(C)C | 21.5 µM |

Now from value to molecule:

| IC50 | Compound |
| --- | --- |
| 12.6 µM | C[C@H]1[C@H](C)CC[C@]2(C(=O)O)CC[C@]3(C)C(=CC[C@@H]4[C@@]5(C)C[C@@H](O)[C@H](O)C(C)(C)[C@@H]5CC[C@]43C)[C@H]12 [COROSOLIC ACID] |
| 26.5 µM | CC[C@H](CC[C@@H](C)[C@H]1CC[C@H]2[C@@H]3CC=C4C[C@@H](O[C@@H]5O[C@H](CO)[C@@H](O)[C@H](O)[C@H]5O)CC[C@]4(C)[C@H]3CC[C@]12C)C(C)C [SITOGLUSIDE] |
| 18.6 µM | C[C@H]1[C@H](C)CC[C@]2(C(=O)O)CC[C@]3(C)C(=CC[C@@H]4[C@@]5(C)CC[C@H](O)C(C)(C)[C@@H]5CC[C@]43C)[C@H]12 [URSOLIC ACID] |
